Experimental data from PubChem BioAssay AID1259408 (Genetic Toxicology Data Bank (GENE-TOX), 2018).
Activity calls are given as the source filed them. The rule behind the calls is not given here.

Tested on: GENE-TOX genotoxicity assays, various organisms and cells
Assay: GENE-TOX mutagenicity studies
Details: for call: Assay Type: In vivo carcinogenicity studies
[1] = Species/Cell Type: Salmonella typhimurium (one or more of the five standard strains: TA98, TA100, TA1535, TA1537, and TA1538), Assay Type: Histidine reverse gene mutation, Ames assay, Assay Code: SAL+, Evaluation Type: Evaluation A (Pre-1980)
[2] = Species/Cell Type: Human diploid fibroblasts, Assay Type: Unscheduled DNA synthesis (UDS) in vitro, DNA effects, Assay Code: UDHT, Evaluation Type: Evaluation A (Pre-1980)
[3] = Species/Cell Type: Mouse, Sex: Male, Assay Type: Sperm morphology, Assay Code: SPI-, Evaluation Type: Evaluation A (Pre-1980)

## O=c1ccc2cc3ccoc3cc2o1
Species/Cell Type: Mammalian cell culture, nonhuman, Assay Type: Micronucleus test in vitro, chromosome aberrations, Assay Code: MN&+, Evaluation Type: Evaluation A (Pre-1980)
  mutagenic call: active; positive
Species/Cell Type: Saccharomyces cerevisiae, Assay Type: Reverse gene mutation, Assay Code: YERT, Evaluation Type: Evaluation A (Pre-1980)
  mutagenic call: no conclusion

## Cc1cc2nc3ccc(=[N+](C)C)cc-3sc2cc1N
Species/Cell Type: Bacillus subtilis (H17 vs M45T), Assay Type: Rec-assay, spot test, DNA effects (bacterial DNA repair), Assay Code: REXT, Evaluation Type: Evaluation A (Pre-1980)
  mutagenic call: no conclusion
Species/Cell Type: Saccharomyces cerevisiae, Assay Type: Mitotic recombination or gene conversion, Assay Code: YECT, Evaluation Type: Evaluation A (Pre-1980)
  mutagenic call: no conclusion

## CNc1nc2c(c(=O)n(C)c(=O)n2C)n1C
Species/Cell Type: Allium cepa, Assay Type: Chromosome aberrations, Assay Code: ALC+, Evaluation Type: Evaluation A (Pre-1980)
  mutagenic call: active; positive

## ClCc1ccccn1
Species/Cell Type: Nonhuman, Assay Code: CCG-L, Evaluation Type: Evaluation A (Pre-1980)
  call: inactive; negative

## Cc1nc2ccc([N+](=O)[O-])cc2[nH]1
[1]
  mutagenic call: active; positive

## CC(C)C[C@H](NC(=O)CNC(=O)[C@H](Cc1ccc(O)cc1)NC(=O)[C@H](CO)NC(=O)[C@H](Cc1c[nH]c2ccccc12)NC(=O)[C@H](Cc1cnc[nH]1)NC(=O)[C@@H]1CCC(=O)N1)C(=O)N[C@@H](CCCN=C(N)N)C(=O)N1CCC[C@H]1C(=O)NCC(N)=O
Species/Cell Type: Human, Sex: Male, Assay Type: Sperm morphology, Assay Code: SPHT, Evaluation Type: Evaluation A (Pre-1980)
  mutagenic call: no conclusion

## CC(C)NCC(O)c1ccc2ccccc2c1 (stereo unspecified)
[2]
  mutagenic call: no conclusion
Species/Cell Type: Mammalian polychromatic erythrocytes, Assay Type: Micronucleus test, chromosome aberrations, Assay Code: MNTT, Evaluation Type: Evaluation B (Post-1980)
  mutagenic call: no conclusion
[3]
  mutagenic call: inactive; negative

## CCCCCCCCCCCCCC(=O)N(O)c1ccc2c(c1)Cc1ccccc1-2
Species/Cell Type: Human diploid fibroblasts, Assay Type: Unscheduled DNA synthesis (UDS) in vitro, DNA effects, Assay Code: UDH-, Evaluation Type: Evaluation A (Pre-1980)
  mutagenic call: inactive; negative
[1]
  mutagenic call: active; positive

## O=P(OCCCl)(OCCCl)OCCCl
Species/Cell Type: Mammalian polychromatic erythrocytes, Assay Type: Micronucleus test, chromosome aberrations, Assay Code: MNT+, Evaluation Type: Evaluation B (Post-1980)
  mutagenic call: active; positive
Species/Cell Type: Salmonella typhimurium (one or more of the five standard strains: TA98, TA100, TA1535, TA1537, and TA1538), Assay Type: Histidine reverse gene mutation, Ames assay, Assay Code: SAL-, Evaluation Type: Evaluation A (Pre-1980)
  mutagenic call: inactive; negative

## CCNC(=O)N(CC)N=O
Species/Cell Type: Zea mays (corn), Assay Type: Gene mutation, Assay Code: ZEM+D, Dose Response: With dose response, Evaluation Type: Evaluation A (Pre-1980)
  mutagenic call: active; positive

## O=C(NO)c1ccccc1
[1]
  mutagenic call: active; positive

## NC(=O)/C(=C\c1ccc([N+](=O)[O-])o1)c1ccco1
Species/Cell Type: Bacillus subtilis (H17 vs M45), Assay Type: Rec-assay, spot test, DNA effects (bacterial DNA repair), Assay Code: REW+, Evaluation Type: Evaluation A (Pre-1980)
  mutagenic call: active; positive
Species/Cell Type: Chinese hamster lung (V79) cells, Assay Type: Forward gene mutation at the HPRT or ouabain locus, Assay Code: V79+, Evaluation Type: Evaluation A (Pre-1980)
  mutagenic call: active; positive
Species/Cell Type: Drosophila melanogaster, Assay Type: Sex-linked recessive lethal gene mutation, Assay Code: SRLT, Evaluation Type: Evaluation A (Pre-1980)
  mutagenic call: no conclusion
Species/Cell Type: Escherichia coli WP2 UVRA, Assay Type: Tryptophan reverse gene mutation, Assay Code: WPU+D, Dose Response: With dose response, Evaluation Type: Evaluation A (Pre-1980)
  mutagenic call: active; positive
[2]
  mutagenic call: no conclusion
Species/Cell Type: Human, Assay Type: Sister-chromatid exchange (SCE) in vitro, Assay Code: SC1+D, Dose Response: With dose response, Evaluation Type: Evaluation B (Post-1980)
  mutagenic call: active; positive
Species/Cell Type: Mammalian polychromatic erythrocytes, Assay Type: Micronucleus test, chromosome aberrations, Assay Code: MNTT, Evaluation Type: Evaluation A (Pre-1980)
  mutagenic call: no conclusion
Species/Cell Type: Mouse lymphoma (L5178Y) cells, Assay Type: Forward gene mutation at the thymidine kinase (TK) locus, chromosome aberrations, Assay Code: L51+, Evaluation Type: Evaluation A (Pre-1980)
  mutagenic call: active; positive
[3]
  mutagenic call: inactive; negative
Species/Cell Type: Neurospora crassa, Assay Type: Forward gene mutation, Assay Code: NEF+, Evaluation Type: Evaluation A (Pre-1980)
  mutagenic call: active; positive
Species/Cell Type: Neurospora crassa, Assay Type: Reverse gene mutation, Assay Code: NER+, Evaluation Type: Evaluation A (Pre-1980)
  mutagenic call: active; positive
Species/Cell Type: Nonhuman, Assay Code: CCG+, Evaluation Type: Evaluation A (Pre-1980)
  call: active; positive
Species/Cell Type: Nonhuman, Assay Type: Sister-chromatid exchange (SCE) in vitro, Assay Code: SC2+D, Dose Response: With dose response, Evaluation Type: Evaluation B (Post-1980)
  mutagenic call: active; positive
Species/Cell Type: Rodents, Sex: Male, Assay Type: Dominant lethal test, Assay Code: DLT-, Evaluation Type: Evaluation A (Pre-1980)
  mutagenic call: inactive; negative
Species/Cell Type: Saccharomyces cerevisiae, Assay Type: Mitotic recombination or gene conversion, Assay Code: YEC+, Evaluation Type: Evaluation A (Pre-1980)
  mutagenic call: active; positive
Species/Cell Type: Saccharomyces cerevisiae, Assay Type: Mitotic recombination or gene conversion, Assay Code: YEH+, Evaluation Type: Evaluation A (Pre-1980)
  mutagenic call: active; positive
Species/Cell Type: Saccharomyces cerevisiae, Assay Type: Reverse gene mutation, Assay Code: YER+, Evaluation Type: Evaluation A (Pre-1980)
  mutagenic call: active; positive
[1]
  mutagenic call: active; positive
Species/Cell Type: Syrian hamster embryo (SHE) cells, Assay Type: Cell transformation, clonal assay, Assay Code: CTC+, Evaluation Type: Evaluation A (Pre-1980)
  mutagenic call: active; positive

## O=S(=O)(c1ccc(Cl)cc1)c1cc(Cl)c(Cl)cc1Cl
Species/Cell Type: Vicia faba, Assay Type: Chromosome aberrations, Assay Code: VIC+D, Dose Response: With dose response, Evaluation Type: Evaluation A (Pre-1980)
  mutagenic call: active; positive

## CC(C)=CCOc1c2occc2cc2ccc(=O)oc12
Species/Cell Type: Human lymphocytes, Assay Type: Sister-chromatid exchange (SCE) in vitro, Assay Code: SCL+, Evaluation Type: Evaluation B (Post-1980)
  mutagenic call: active; positive
Species/Cell Type: Human, Assay Type: Sister-chromatid exchange (SCE) in vitro, Assay Code: SC1+, Evaluation Type: Evaluation B (Post-1980)
  mutagenic call: active; positive

## CCCCCCCCCCCCCC(=O)ON(C(=O)CCCCCCCCCCCCC)c1ccc2c(c1)Cc1ccccc1-2
Species/Cell Type: Human diploid fibroblasts, Assay Type: Unscheduled DNA synthesis (UDS) in vitro, DNA effects, Assay Code: UDH+, Evaluation Type: Evaluation A (Pre-1980)
  mutagenic call: active; positive
Species/Cell Type: Salmonella typhimurium (one or more of the five standard strains: TA98, TA100, TA1535, TA1537, and TA1538), Assay Type: Histidine reverse gene mutation, Ames assay, Assay Code: SALT, Evaluation Type: Evaluation A (Pre-1980)
  mutagenic call: no conclusion
